Several values for one entry are separate records, joined by “and”; a condition that tells them apart may be missing. Equal values may be shown once. Numbered stars: 1 amine (or outer) side, 2 acyl side, 3 side chain; on linkers, the order of the positions; unused ones are H or OH. Bridge positions count the residues as written; N and C are the ends. Square brackets hold non-standard residues; d marks the D form. Peptide text beside a SMILES is read from it. * marks the point of attachment. ξ: configuration not given here. Orn(4R-OH,5R-OCH2CH2NMe3+) = C[N+](C)(C)CCO[C@@H](N[*:3])[C@H](O)C[C@H](N[*:1])C(=O)[*:2]; hTyr(3S-OH,4S-OH,3'-OSO3H) = N[C@H](C(=O)O)[C@H](O)[C@@H](O)c1ccc(O)c(OS(=O)(=O)O)c1; pTerphenylCO(4''-OnC5H11) = CCCCCOc1ccc(-c2ccc(-c3ccc(C(=O)*)cc3)cc2)cc1; Orn(4R-OH,5R-OH) = O=C([C@H](C[C@@H](O)[C@@H](O)N[*:3])N[*:1])[*:2]; hTyr(3S-OH,4S-OH) = N[C@H](C(=O)O)[C@H](O)[C@@H](O)c1ccc(O)cc1; Pro(3S-OH,4S-Me) = C[C@H]1CN[C@H](C(=O)O)[C@H]1O; X2 = CCCCCOc1ccc(-c2cc(-c3ccc(C(=O)*)cc3)no2)cc1; Gln(3R-OH) = NC(=O)C[C@@H](O)[C@H](N)C(=O)O; X1 = C[C@H]1CN([*:1])C(C(=O)[*:2])C1O; Hyp = O=C(O)[C@@H]1C[C@@H](O)CN1; ξT = CC(O)C(N)C(=O)O
Tested on: Aspergillus fumigatus strain AF293
Assay: Murine model of pulmonary aspergillosis (Example 16), survival and lung burden
Type: in vivo
Settings: for Mean Survival / Median Survival / survival time post infection, range / mice that survived to the end of the study: Day −1; for Group Geometric mean / Log10 Group Geometric mean / Log10 reduction from vehicle control: terminal lung burden; for mice that survived to the end of the study: 6 mice per group, 10 days
Protocol: Animal strain and housing. Mice used in these studies were supplied by Charles River (Margate UK) and were specific pathogen free. The strain of mice used was ICR (also known as CD1 Mice) which is a well characterized outbred murine strain. Male mice were 11-15 g on receipt and allowed to acclimatize for at least 7 days.
Immunosuppression. Mice were immunosuppressed on Day −4 with 150 mg/kg cyclophosphamide administered intraperitoneally (IP), and on Day −1 with 150 mg/kg cyclophosphamide IP and 175 mg/kg cortisone acetate administered subcutaneously (SC). To prevent bacterial infection due to the immunosuppression mice were given once daily 50 mg/kg ceftazidime.
Preparation of Organism and Infection. A. fumigatus strain AF293 inoculum was prepared from spore cultures grown on Sabouraud Dextrose agar (SAB) containing 50 μg/mL chloramphenicol (SABC) in vented tissue culture flasks. Following incubation for 7-10 days at 30° C., spore cultures were washed in sterile phosphate buffered saline (PBS) containing 0.05% Tween 80. Spore count was determined using a haemocytometer and spores were diluted in PBS to ˜6.9×10^6 CFU/mL. Inoculum concentration was confirmed by quantitative culture onto SABC agar.
Neutropenic mice lungs were infected with 0.04 mL (0.02 mL/nare) of ˜4.17×10^6 CFU/mL (˜1.67×10^5 CFU/mouse) of A. fumigatus AF293 by intranasal (IN) instillation under temporary 2.5% isoflurane induced anesthesia.
Preparation of Test Articles. Micafungin (Mycamine, Astellas) was provided as a 50 mg vial (Lot 02323002, expiry 08/2017) and was prepared as per manufacturer's instructions by adding 5 mL saline for injection (SFI) directly into the vial to make up a 10 mg/mL stock solution. This solution was then diluted further in SFI to a working concentration of 0.5 mg/mL. […] It was prepared fresh once and stored at 4° C. until required.
Posaconazole (Noxafil 40 mg/mL oral suspension, Merck Sharp & Dohme Limited) was provided as a 40 mg/mL oral suspension (Lot N00801, expiry 04/2019). This suspension was then diluted further in water for infection (WFI) to a working concentration of 0.2 and 1 mg/mL. The suspension was administered orally (PO) at 10 mL/kg for 2 and 10 mg/kg doses respectively, was prepared fresh once and stored at 4° C. until required.
Test article CD101 stock was prepared at 6 mg/mL in 10% DMSO/1% Tween 20 diluent. A clear non particulate solution was obtained following gentle mixing. […] All doses were administered IP at 10 mL/kg. The study doses were kept at 4° C. until required.
Treatment. For this study, treatments were initiated on Day 1 pre infection according to treatment groups outlined in Table 22. A total of 36 mice (6/treatment group) were used in the study.
Endpoints. The primary endpoint for this study was survival within agreed ethical limits (>20% weight loss, severe hypothermia <34° C., inability to reach food or drink, severe hunching). Mice were monitored by daily weight measurements with observations as frequently as clinical condition required.
Mice presenting with severe clinical deterioration were humanely euthanized using an overdose of pentobarbitone administered by IP injection following clinical assessment and the time of death was recorded. Animal carcasses were stored at −20° C. before quantitative assessment of burden.
Ten days post infection all surviving animals were weighed and had their clinical condition assessed prior to being euthanized. Final survival numbers were recorded and analysed as described below and carcasses frozen at −20° C. prior to further processing.
Lung burden. A secondary endpoint for the study was terminal lung tissue burden. Immediately following confirmation of death, carcasses were frozen at −20° C. prior to tissue dissection and processing. The frozen carcasses were thawed at room temperature, the lungs removed and placed into pre-weighed bead-beating tubes containing 2 mL of PBS and subjected to mechanical disruption. […]

CCCCCOc1ccc(-c2cc(-c3ccc(C(=O)N[C@H]4C[C@@H](O)[C@@H](O)NC(=O)[C@@H]5[C@@H](O)[C@@H](C)CN5C(=O)[C@H]([C@H](O)CC(N)=O)NC(=O)[C@H]([C@H](O)[C@@H](O)c5ccc(O)c(OS(=O)(=O)O)c5)NC(=O)[C@@H]5C[C@@H](O)CN5C(=O)[C@H]([C@@H](C)O)NC4=O)cc3)no2)cc1 [Micafungin, micafungin, reference compound] (X2-[Orn(4R-OH,5R-OH)]T[Hyp][hTyr(3S-OH,4S-OH,3'-OSO3H)][Gln(3R-OH)][Pro(3S-OH,4S-Me)]; lactam 1-C)
Mean Survival (5 mg/kg IP once): 92 h and 92.0 h
Median Survival (5 mg/kg IP once): 80 h and 80.0 h
survival time post infection, range (5 mg/kg IP once): 71 to 162 h
survival vs vehicle (conclusion) (5 mg/kg once one day pre-infection): did not show any improvement in survival
Group Geometric mean (5 mg/kg IP Day −1): 6.61 × 10^3 CFU/g
Log10 Group Geometric mean (5 mg/kg IP Day −1): 3.82 CFU/g
Log10 reduction from vehicle control (5 mg/kg IP Day −1): 0.35 CFU/g

CCCCCOc1ccc(-c2ccc(-c3ccc(C(=O)N[C@H]4C[C@@H](O)[C@@H](OCC[N+](C)(C)C)NC(=O)C5C(O)[C@@H](C)CN5C(=O)[C@H]([C@@H](C)O)NC(=O)[C@H]([C@H](O)[C@@H](O)c5ccc(O)cc5)NC(=O)[C@@H]5C[C@@H](O)CN5C(=O)C(C(C)O)NC4=O)cc3)cc2)cc1 (stereo partly drawn) [CD101] ({pTerphenylCO(4''-OnC5H11)}-[Orn(4R-OH,5R-OCH2CH2NMe3+)][ξT][Hyp][hTyr(3S-OH,4S-OH)]T[X1]; lactam 1-C)
Mean Survival (20 mg/kg IP once): 130.4 h
Median Survival (20 mg/kg IP once): 74.7 h
survival time post infection, range (20 mg/kg IP once): 70 to 240 h
mice that survived to the end of the study (20 mg/kg IP once): Two
Mean Survival (60 mg/kg IP once): 122.7 h
Median Survival (60 mg/kg IP once): 88.7 h
survival time post infection, range (60 mg/kg IP once): 73-240
mice that survived to the end of the study (60 mg/kg IP once): A single mouse
survival vs vehicle (conclusion) (20 and 60 mg/kg once one day pre-infection): slight increase in survival, which was statistically longer than the vehicle treatment
Group Geometric mean (20 mg/kg IP Day −1): 4.37 × 10^3 CFU/g
Log10 Group Geometric mean (20 mg/kg IP Day −1): 3.64 CFU/g
Log10 reduction from vehicle control (20 mg/kg IP Day −1): 0.53 CFU/g
Group Geometric mean (60 mg/kg IP Day −1): 1.38 × 10^4 CFU/g
Log10 Group Geometric mean (60 mg/kg IP Day −1): 4.14 CFU/g
Log10 reduction from vehicle control (60 mg/kg IP Day −1): 0.03 CFU/g
